Assay results published in patent EP0315434A2, “Pyridoxal hydrazone derivatives their production and use and pharmaceutical compositions containing the same” (YISSUM RESEARCH DEVELOPMENT COMPANY OF THE HEBREW …, priority 1987, dated 1989).

Experiments:
[1] = target: T1, Ribonucleoside Diphosphate Reductase (RdR) (Homo sapiens, UniProt P31350); assay: Inhibition of ribonucleotide diphosphate reductase; type: biochemical
T1 sequence (P31350 1-389): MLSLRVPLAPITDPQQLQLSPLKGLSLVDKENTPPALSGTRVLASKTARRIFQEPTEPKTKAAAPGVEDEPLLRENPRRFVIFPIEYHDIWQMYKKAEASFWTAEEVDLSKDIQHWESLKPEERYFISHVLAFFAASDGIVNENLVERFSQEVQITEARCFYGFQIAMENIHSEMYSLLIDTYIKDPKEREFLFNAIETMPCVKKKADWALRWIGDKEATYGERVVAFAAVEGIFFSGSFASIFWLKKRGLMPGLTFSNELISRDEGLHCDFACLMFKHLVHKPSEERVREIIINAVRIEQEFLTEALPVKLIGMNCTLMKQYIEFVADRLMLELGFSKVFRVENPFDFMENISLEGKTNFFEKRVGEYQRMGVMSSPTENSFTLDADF

[2] = tested on: chloroquine-resistant strain of P. falciparum (FCR-3); details: molar concentration 2 x 10⁻⁶; cultured 3 days
Protocol: Cultures of a chloroquine-resistant strain of P. falciparum (FCR-3), cultivated in human erythrocytes (a technique widely used at the Kuvin Centre, Hebrew University Hadassah Medical School), were suspended in solutions containing chelators and then cultured for 3 days. Growth of parasites was determined by either slide counts or by incorporation of ³H-hypoxanthine. The parasite growth was monitored by microscopic slide counts. […]

[3] = Fate of ⁵⁹Fe tracer incubated with chelator and injected into normal rats (radioiron distribution and excretion); type: in vivo; details: for TOTAL EXCRETION OF RADIO-IRON IN RATS %: as in Table 1
Protocol: Table 1 describes the fate of ⁵⁹Fe tracer reincubated […] with 10 mg of some of the above iron chelators and then injected subcutaneously to groups of 4 normal rats. Numbers represent mean cumulative radioiron excretion within 4 days of injection. For comparison, spontaneous excretion of radioiron and the excretion of desferrioxamine (DF) bound radioiron are also given. […]
Spleen and kidney were counted as whole organs.
The excretion of radioiron following ⁵⁹Fe labelling was measured in animals confined to solitary metabolic cages with stainless steel grid bottoms, and stool and urine were collected separately.

[4] = Mobilization of iron from hepatic parenchymal stores in hypertransfused rats labelled with ⁵⁹Fe-ferritin; type: in vivo
Protocol: In each case, 40 mg of each compound was administered per animal in a single subcutaneous injection.
In vivo studies of chelating efficiency were performed in two models: (a) normal rats injected i.p. with 10 mg of either desferrioxamine B (DF), PIH of the prior art, PPH of Example 4 or PPHE from Example 5 labelled in vitro with ⁵⁹Fe; and (b) hypertransfused rats receiving twice 4 ml/100gm packed RBC intravenously 5 and 3 days prior to study (hematocrit 68%) and labelled with ⁵⁹Fe-ferritin injected i.v. 24h prior to iron chelating therapy as described previously. Drugs to be tested in the ⁵⁹Fe-ferritin model were given either by i.p. injection or by gastric tube at a dose of 40 mg per animal. Radioiron excretion and organ distribution were determined after 4 days
The radioactivity of spleen, weighed portions of the liver, and 1 ml samples of blood were determined in an automatic well type scintillation counter (Packard Autogamma Model 5360 Scintillation spectrometer). Spleen and kidney were counted as whole organs.
Whole body counts were performed in a small animal counter (Packard Model 446 Armac) scintillation detector. The excretion of radioiron following ⁵⁹Fe labelling was measured in animals confined to solitary metabolic cages with stainless steel grid bottoms, and stool and urine were collected separately.

Lewis lung carcinoma = assay: Inhibition of Lewis lung carcinoma (primary tumor and metastases); type: in vivo
Description: It becomes possible also to look at the ability of one of the compounds (Ex. 1) to inhibit the growth of Lewis lung carcinoma. With a view to possible mechanisms we employed the well-established anti-cancer antibiotics (a) bleomycin, and (b) daunorubicin, as reference compounds.

Leukemia P 388 = Leukemia P 388 survival in mice; type: in vivo, Mice: female B6D2F1; details: days 1, 2, 3, 4
[5] = Iron chelation in H₂O (spectrophotometric, apparent K), ferrous ions; type: physicochemical; details: ferrous versus ferric
[6] = 10 mg chelator with ⁵⁹Fe, subcutaneous, normal rats, cumulative within 4 days
[7] = 10 mg chelator with ⁵⁹Fe, subcutaneous, normal rats, within 4 days
[8] = hypertransfused rats, 40 mg per animal, single subcutaneous injection

Molecule: 1-[N-ethoxycarbonylmethyl pyridoxylidenium] 2-[2′-pyridyl] hydrazine bromide [Ex. 3]
- Inhibition of Ribonucleoside Diphosphate Reductase (RdR) % ([1]; dose 10 x 10⁻⁵ M): none
- INHIBITION OF GROWTH OF DRUG-RESISTANT STRAIN OF P. falciparum % INHIBITION [2]: 90.9%
- Radioiron Distribution in % Feces [3, 6]: 57.2±1.1%
- Radioiron Distribution in % Total excretion [3, 6]: 86.7±1.7%
- Radioiron Distribution in % Urine [3, 6]: 29.5±0.6%
- Radioiron Distribution in % Blood [3, 7]: 6.4±0.4%
- Radioiron Distribution in % Liver [3, 7]: 3.3±0.4%
- Radioiron Distribution in % Spleen [3, 7]: 0.16±0.04%
- TOTAL EXCRETION OF RADIO-IRON IN RATS % [3]: 86.7± 1.7%
- Ferritin-⁵⁹Fe distribution in % Blood [4, 8]: 3.8±0.2%
- Ferritin-⁵⁹Fe distribution in % Feces [4, 8]: 57.6±2.9%
- Ferritin-⁵⁹Fe distribution in % Liver [4, 8]: 36.5±1.2%
- Ferritin-⁵⁹Fe distribution in % Residual [4, 8]: 0%
- Ferritin-⁵⁹Fe distribution in % Spleen [4, 8]: 0.4±0.1%
- Ferritin-⁵⁹Fe distribution in % Urine [4, 8]: 1.7±0.1%
- efficiency as compared to the parenteral administration of the same drug ([4]; oral 40 mg versus parenteral): 31%
- effectiveness relative to DF on a weight per weight basis ([4]; rat, in vivo): 3 times

Molecule: Cc1ncc(CO)c(C=NNc2ccccn2)c1O [Ex. 1]
- Inhibition of Ribonucleoside Diphosphate Reductase (RdR) % ([1]; dose 6.7 x 10⁻⁵ M (20 µg/ml)): 72%
- INHIBITION OF GROWTH OF DRUG-RESISTANT STRAIN OF P. falciparum % INHIBITION [2]: 93.4%
- TOTAL EXCRETION OF RADIO-IRON IN RATS % [3]: 34.2%
- Inhibition of Lewis Carcinoma Metastases % (Lewis lung carcinoma; dose 25 mg/kg): 41%
- Inhibition of Lewis Carcinoma Primary Tumor % (Lewis lung carcinoma; dose 25 mg/kg): 0%
- Activity T/C x 100 (Leukemia P 388; 25 mg/kg i.p.): 105
- Bodyweights Day 7-Day (g) (Leukemia P 388; 25 mg/kg i.p.): +2.6 g
- Survivors on Day 20 (Leukemia P 388; 25 mg/kg i.p.): 0/5
- Activity T/C x 100 (Leukemia P 388; 37.5 mg/kg i.p.): 110
- Bodyweights Day 7-Day (g) (Leukemia P 388; 37.5 mg/kg i.p.): +0.2 g
- Survivors on Day 20 (Leukemia P 388; 37.5 mg/kg i.p.): 0/5
- Bodyweights Day 7-Day (g) (Leukemia P 388; 50 mg/kg i.p.): +0.8 g
- Survivors on Day 20 (Leukemia P 388; 50 mg/kg i.p.): 0/5
- Activity T/C x 100 (Leukemia P 388; 50 mg/kg i.p., P<0.05 (Mann-Whitney Test)): 126(xxx)
- Activity T/C x 100 (Leukemia P 388; 75 mg/kg i.p.): Toxic^(xx)
- Bodyweights Day 7-Day (Leukemia P 388; 75 mg/kg i.p.): -0.6 g
- Survivors on Day 20 (Leukemia P 388; 75 mg/kg i.p.): 0/5

Molecule: Cc1ncc(CO)c(C=NNc2ncccn2)c1O [Ex. 4]
- Inhibition of Ribonucleoside Diphosphate Reductase (RdR) % ([1]; dose 1 x 10⁻⁵ M): 30%
- Inhibition of Ribonucleoside Diphosphate Reductase (RdR) % ([1]; dose 10 x 10⁻⁵ M): 40%
- Inhibition of Ribonucleoside Diphosphate Reductase (RdR) % ([1]; dose 100 x 10⁻⁵ M): 78%
- higher affinity for ferrous than for ferric ions [5]: ~30 fold

Molecule: bleomycin [reference compound]
- Inhibition of Lewis Carcinoma Metastases % (Lewis lung carcinoma; dose 1.25 mg/kg): 48%
- Inhibition of Lewis Carcinoma Primary Tumor % (Lewis lung carcinoma; dose 1.25 mg/kg): 24%
